# Reference: article PMC12024264, “Frog Skin Peptides Hylin-a1, AR-23, and RV-23: Promising Tools Against Carbapenem-Resistant Escherichia coli and Klebsiella pneumoniae Infections” (Antibiotics, 2025)
# Like-named read-outs stand apart in the source and are kept apart here.
# Legend:
# Assay in all cases: Antibiotic resistance profile of clinical isolate (Table S1)
# K. pneumoniae 1745 = assay type: cell-based, Klebsiella pneumoniae; conditions: for MIC: Klebsiella pneumoniae
# Procedure: (§1) Each strain was grown in Mueller Hinton Broth (MH Broth), and 5 × 10^5 CFU/mL was used to evaluate antibacterial activity. Clinical carbapenem-resistant K. pneumoniae and E. coli isolates were collected at the AOU of Virology and Microbiology of the University of Campania “Luigi Vanvitelli”. […]
# (§2) Table S1. Antibiotic resistance profile of K. pneumoniae and E. coli clinical isolates . MIC: Minimum Inhibitory
# (§3) Concentration was expressed in µg/mL; S: Sensible; I: Intermediate; R: Resistant.
# (§4) Antibiotic Resistance Profile of the Clinical Isolated Bacteria
# (§5) Antibiotics MIC (µg/mL) Interpretation […]
# K. pneumoniae 311 = assay type: cell-based, Klebsiella pneumoniae; conditions: for MIC: Klebsiella pneumoniae
# Procedure: as §1, §2, §3, §4, §5
# K. pneumoniae 1746 = assay type: cell-based, Klebsiella pneumoniae
# Procedure: as §1, §2, §3, §4, §5
# K. pneumoniae 1711 = assay type: cell-based, Klebsiella pneumoniae; conditions: for MIC: Klebsiella pneumoniae
# Procedure: as §1, §2, §3, §4, §5
# E. coli 2267 = assay type: cell-based, Escherichia coli; conditions: for MIC: Escherichia coli
# Procedure: as §1, §2, §3, §4, §5
# E. coli 3140 = assay type: cell-based, Escherichia coli; conditions: for MIC: Escherichia coli
# Procedure: as §1, §2, §3, §4, §5
# E. coli 1376 = assay type: cell-based, Escherichia coli; conditions: for MIC: Escherichia coli
# Procedure: as §1, §2, §3, §4, §5
# E. coli 716 = assay type: cell-based, Escherichia coli; conditions: for MIC: Escherichia coli
# Procedure: as §1, §2, §3, §4, §5
# E. coli 1441 = assay type: cell-based, Escherichia coli; conditions: for MIC: Escherichia coli
# Procedure: as §1, §2, §3, §4, §5
# [1] = Table S1, K. pneumoniae 1745, read-out: MIC
# [2] = Table S1, K. pneumoniae 1711, read-out: MIC
# [3] = Table S1, E. coli 2267, read-out: MIC
Compound,MIC (K. pneumoniae 1745; [1]) [µg/mL],"Interpretation (K. pneumoniae 1745; Table S1, K. pneumoniae 1745)",MIC (K. pneumoniae 311; 311) [µg/mL],"Interpretation (K. pneumoniae 311; Table S1, K. pneumoniae 311)","MIC (K. pneumoniae 1746; Klebsiella pneumoniae, 1746) [µg/mL]","Interpretation (K. pneumoniae 1746; Table S1, K. pneumoniae 1746)",MIC (K. pneumoniae 1711; [2]) [µg/mL],"Interpretation (K. pneumoniae 1711; Table S1, K. pneumoniae 1711)",MIC (E. coli 2267; [3]) [µg/mL],"Interpretation (E. coli 2267; Table S1, E. coli 2267)",MIC (E. coli 3140; 3140) [µg/mL],"Interpretation (E. coli 3140; Table S1, E. coli 3140)",MIC (E. coli 1376; 1376) [µg/mL],"Interpretation (E. coli 1376; Table S1, E. coli 1376)",MIC (E. coli 716; 716) [µg/mL],"Interpretation (E. coli 716; Table S1, E. coli 716)",MIC (E. coli 1441; 1441) [µg/mL],"Interpretation (E. coli 1441; Table S1, E. coli 1441)",other results
NCC[C@H](O)C(=O)N[C@@H]1C[C@H](N)[C@@H](O[C@H]2O[C@H](CN)[C@@H](O)[C@H](O)[C@H]2O)[C@H](O)[C@H]1O[C@H]1O[C@H](CO)[C@@H](O)[C@H](N)[C@H]1O [Amikacin],8,S,≤ 4,S,≤ 4,S,≤ 4,S,≤ 4,S,≤ 4,S,> 16,R,≤ 4,S,≤ 4,S,
CC1(C)S[C@@H]2[C@H](NC(=O)[C@H](N)c3ccccc3)C(=O)N2[C@H]1C(=O)O [Ampicillin],,R,> 8,R,> 8,R,,R,,R,> 8,R,> 8,R,> 8,R,> 8,R,MIC (K. pneumoniae 1745; 1745): > 8 µg/mL; MIC (K. pneumoniae 1711; 1711): > 8 µg/mL; MIC (E. coli 2267; 2267): > 8 µg/mL
C[C@H]1[C@H](NC(=O)/C(=N\OC(C)(C)C(=O)O)c2csc(N)n2)C(=O)N1S(=O)(=O)O [Aztreonam],,R,,,,,,R,,R,,,,,,,,,
CO/N=C(\C(=O)N[C@@H]1C(=O)N2C(C(=O)[O-])=C(C[N+]3(C)CCCC3)CS[C@H]12)c1csc(N)n1 [Cefepime],,R,,,,,,R,,R,,,,,,,,,
CC(C)(O/N=C(\C(=O)N[C@@H]1C(=O)N2C(C(=O)[O-])=C(C[N+]3(CCNC(=O)c4ccc(O)c(O)c4Cl)CCCC3)CS[C@H]12)c1csc(N)n1)C(=O)O [Cefiderocol],,,,,,S,,I,,,,,,,,,,,
CC(C)(O/N=C(\C(=O)N[C@@H]1C(=O)N2C(C(=O)[O-])=C(C[n+]3ccccc3)CS[C@H]12)c1csc(N)n1)C(=O)O [Ceftazidime],> 16,R,> 16,R,> 16,R,> 16,R,> 16,R,16,R,> 16,R,> 16,R,> 16,R,
CO/N=C(\C(=O)N[C@@H]1C(=O)N2C(C(=O)O)=C(CSc3nc(=O)c(=O)[nH]n3C)CS[C@H]12)c1csc(N)n1 [Ceftriaxone],> 4,R,> 4,R,> 4,R,> 4,R,> 4,R,≤ 0.5,S,> 4,R,> 4,R,> 4,R,
CO/N=C(\C(=O)N[C@@H]1C(=O)N2C(C(=O)O)=C(COC(N)=O)CS[C@H]12)c1ccco1 [Cefuroxime],> 8,R,> 8,R,,,> 8,R,> 8,R,> 8,R,> 8,R,> 8,R,> 8,R,
C[C@@H](O)[C@H]1C(=O)N2C(C(=O)O)=C(S[C@@H]3CN[C@H](C(=O)Nc4cccc(C(=O)O)c4)C3)[C@H](C)[C@H]12 [Ertapenem],> 1,R,> 1,R,> 1,R,> 1,R,> 1,R,> 1,R,> 1,R,> 1,R,> 1,R,
C[C@@H]1O[C@@H]1P(=O)(O)O [Fosfomycin],≤ 16,S,≤ 16,S,≤ 16,S,32,S,≤ 16,S,,,> 64,R,≤ 16,S,≤ 16,S,
CNC(C)C1CCC(N)C(OC2C(N)CC(N)C(OC3OCC(C)(O)C(NC)C3O)C2O)O1 (stereo not shown) [Gentamicin],,R,> 4,R,2,S,,R,,S,≤ 1,S,> 4,R,≤ 1,S,≤ 1,S,MIC (K. pneumoniae 1745; 1745): > 4 µg/mL; MIC (K. pneumoniae 1711; 1711): > 4 µg/mL; MIC (E. coli 2267; 2267): ≤ 1 µg/mL
C[C@@H](O)[C@H]1C(=O)N2C(C(=O)O)=C(SCCN=CN)C[C@H]12 [Imipenem],> 8,R,2,S,4,I,> 8,R,> 8,R,2,S,> 8,R,> 8,R,4,I,
O=C1CN(/N=C/c2ccc([N+](=O)[O-])o2)C(=O)N1 [Nitrofurantoin],,,,,,,,,,,≤ 16,S,,,,,,,
CCn1cc(C(=O)O)c(=O)c2cc(F)c(N3CCNCC3)cc21 [Norfloxacin],,,,,,,,,,,≤ 0.5,S,,,,,,,
CO[C@@]1(NC(=O)C(C(=O)O)c2ccsc2)C(=O)N2[C@@H](C(=O)O)C(C)(C)S[C@@H]21 (stereo partly shown) [Temocillin],> 32,R,,R,,,> 32,R,> 32,R,,R,,R,,R,,S,"MIC (K. pneumoniae 311; Table S1, K. pneumoniae 311, read-out: MIC): > 32 µg/mL; MIC (E. coli 3140; Table S1, E. coli 3140, read-out: MIC): > 32 µg/mL; MIC (E. coli 1376; Table S1, E. coli 1376, read-out: MIC): > 32 µg/mL; MIC (E. coli 716; Table S1, E. coli 716, read-out: MIC): > 32 µg/mL; MIC (E. coli 1441; Table S1, E. coli 1441, read-out: MIC): 8 µg/mL"
CN(C)c1cc(NC(=O)CNC(C)(C)C)c(O)c2c1C[C@H]1C[C@H]3[C@H](N(C)C)C(O)=C(C(N)=O)C(=O)[C@@]3(O)C(O)=C1C2=O [Tigecycline],,,,,,,,,> 2,R,,,≤ 0.5,S,> 2,R,≤ 0.5,S,
Colistin,,,,,,S,,,,,,,,,,,,,"MIC (K. pneumoniae 1746; Table S1, K. pneumoniae 1746): 0.25 µg/mL"
